This passage reports Ki results from publication PMC6424628 (Neuropharmacology, 2019).

The target in experiment [1] is dopamine transporter (hDAT) (Homo sapiens, UniProt Q01959). In words: [3H]DA uptake inhibition in COS-7 cells expressing hDAT. Format: cell-based.
Experiment [2] concerns the target norepinephrine transporter (hNET) (Homo sapiens, UniProt P23975). The experiment can be described thus: [3H]NE uptake inhibition in COS-7 cells expressing hNET. The experiment is classed as cell-based.

One may read the Ki as the equilibrium dissociation constant of an inhibitor or competing ligand from its target. A high value points to weaker binding.

Chain of dopamine transporter (hDAT) (Q01959 whole entry): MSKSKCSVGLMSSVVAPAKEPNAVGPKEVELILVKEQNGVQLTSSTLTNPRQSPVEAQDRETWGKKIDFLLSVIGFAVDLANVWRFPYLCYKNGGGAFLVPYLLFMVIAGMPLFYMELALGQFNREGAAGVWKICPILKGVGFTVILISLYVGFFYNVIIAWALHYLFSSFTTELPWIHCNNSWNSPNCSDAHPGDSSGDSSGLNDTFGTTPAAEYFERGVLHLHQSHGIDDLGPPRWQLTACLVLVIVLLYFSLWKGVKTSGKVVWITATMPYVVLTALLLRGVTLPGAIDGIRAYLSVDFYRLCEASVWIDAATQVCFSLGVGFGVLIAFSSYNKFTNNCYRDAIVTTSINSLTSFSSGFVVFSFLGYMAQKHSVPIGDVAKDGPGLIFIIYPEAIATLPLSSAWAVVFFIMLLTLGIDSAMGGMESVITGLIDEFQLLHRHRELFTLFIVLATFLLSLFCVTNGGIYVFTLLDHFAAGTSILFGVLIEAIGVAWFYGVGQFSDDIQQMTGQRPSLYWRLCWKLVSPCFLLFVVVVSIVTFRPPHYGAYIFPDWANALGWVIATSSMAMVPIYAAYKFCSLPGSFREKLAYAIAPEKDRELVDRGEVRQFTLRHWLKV
Chain of norepinephrine transporter (hNET) (P23975 whole entry): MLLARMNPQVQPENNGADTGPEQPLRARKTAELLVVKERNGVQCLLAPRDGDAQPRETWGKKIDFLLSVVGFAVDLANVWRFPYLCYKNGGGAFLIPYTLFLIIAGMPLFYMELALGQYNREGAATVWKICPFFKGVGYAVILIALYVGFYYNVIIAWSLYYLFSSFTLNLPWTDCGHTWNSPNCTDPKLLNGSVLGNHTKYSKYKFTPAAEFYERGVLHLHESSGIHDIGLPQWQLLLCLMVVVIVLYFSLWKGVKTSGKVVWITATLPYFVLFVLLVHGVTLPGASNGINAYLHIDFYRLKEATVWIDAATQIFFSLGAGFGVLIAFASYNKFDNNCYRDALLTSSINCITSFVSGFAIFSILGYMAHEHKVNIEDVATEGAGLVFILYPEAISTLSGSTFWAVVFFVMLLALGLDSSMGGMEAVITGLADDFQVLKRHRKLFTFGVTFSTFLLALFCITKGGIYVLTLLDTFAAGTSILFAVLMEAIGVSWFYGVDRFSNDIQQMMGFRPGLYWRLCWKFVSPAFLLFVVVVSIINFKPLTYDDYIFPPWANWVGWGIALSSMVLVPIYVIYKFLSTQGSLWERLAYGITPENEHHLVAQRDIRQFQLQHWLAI

Turning to `CC(N)CCc1ccccc1Cl` (centres unmarked) [SK609], the Ki turned out to be 5.7 ± 1.3 µM in experiment [1] and 0.57 ± 0.11 µM in experiment [2].
